Starred links: 1 amine or outer side, 2 acyl side, 3 side chain; linkers in the order of their positions; H or OH if unused. Positions of bridges follow the written chain, without caps; N, C: chain ends. Non-standard residues stand in square brackets, D forms with d. Residues, ends and D or L forms follow the SMILES beside them. *: point of attachment. Propanoyl(3-(4-HOOCCH2-Ph)) = O=C(O)Cc1ccc(CCC(=O)*)cc1; X4 = O=C([C@@H](Cc1ccc(Cc2nn[nH]n2)cc1)N[*:1])[*:2]; X6 = O=C([C@H](Cc1ccc(Cc2nnn[nH]2)cc1)N[*:1])[*:2]; X9 = O=C(C(Cc1ccc(-c2nnn[nH]2)cc1)N[*:1])[*:2]; X10 = O=C(CCc1ccc(-c2nn[nH]n2)cc1)*; X2 = O=C(CCc1ccc(Cc2nnn[nH]2)cc1)*; NMeF = CN[C@@H](Cc1ccccc1)C(=O)O; Nle = CCCC[C@H](N)C(=O)O

In assay [1] the target is T1, Bovine Striatum (3H-CCK-8-(SO3 H) receptor binding) (Bos taurus, UniProt P79266).
T1 construct: tissue homogenate (striatum approximately 0.26 mg protein in 2 mL final volume); from tissue; host or cells: bovine striatum membrane homogenate
T1 sequence (P79266 1-454): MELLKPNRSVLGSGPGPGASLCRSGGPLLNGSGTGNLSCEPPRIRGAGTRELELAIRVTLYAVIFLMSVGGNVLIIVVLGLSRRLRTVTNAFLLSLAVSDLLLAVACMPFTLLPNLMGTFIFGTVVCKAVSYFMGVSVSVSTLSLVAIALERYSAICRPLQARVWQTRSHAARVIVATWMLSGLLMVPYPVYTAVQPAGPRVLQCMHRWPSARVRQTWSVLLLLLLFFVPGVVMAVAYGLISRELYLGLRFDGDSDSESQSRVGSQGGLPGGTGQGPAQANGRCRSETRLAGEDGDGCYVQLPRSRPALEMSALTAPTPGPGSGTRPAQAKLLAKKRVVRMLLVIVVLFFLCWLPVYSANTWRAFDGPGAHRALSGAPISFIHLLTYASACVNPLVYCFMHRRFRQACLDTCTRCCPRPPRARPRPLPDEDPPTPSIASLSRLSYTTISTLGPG
The assay can be described thus: In vitro receptor binding assay, 3H-CCK-8-(SO3H), bovine striatum homogenate. The conditions noted are these: 3H-CCK-8-(SO3H) 0.15 nM, 30 min at 25° C., bovine striatum homogenate; read-out: Bovine Striatum IC50 (concentration to inhibit 50% of specific 3H-CCK-8-(SO3H) binding). The method, then: (§1) Frozen bovine striatum (approx. 5 g) or fresh rat pancreas (approx. 5 g) cleaned of fat and extraneous tissue were homogenized in HEPES buffer #1 (10 mM HEPES+130 mM NaCl+5 mM MgCl2, pH 7.4) using 35 parts buffer per 1 part tissue on a wet weight/volume basis (approx. 175 mL). The tissue was homogenized 2×for approx. 15 sec. at 0° C. using a Polytron homogenizer at a setting of 6. The tissue was isolated by centrifugation at 48,000× g for 10 min at 0° C. The resulting tissue pellet was resuspended in HEPES buffer #2 (10 mM HEPES+130 mM NaCl+5 mM MgCl2 +1 mg/L phenylmethanasulfonyl fluoride (PMSF)+200 mg/L Bacitracin): 1 part striatal tissue (original wet weight) per 80 parts buffer and 1 part pancreas tissue (original wet weight) per 500 to 1000 parts buffer.
(§2) Incubation was initiated by combining various concentrations of native CCK-8 or peptides of the invention with ^3 H-CCK-8-(SO3 H) (final conc.=0.15 nM) and tissue homogenate (striatum approximately 0.26 mg protein in 2 mL final volume; pancreas approximately 0.100 mg protein in 1 mL final volume). Samples were incubated for 30 min at 25° C. and the incubation terminated by pouring the mixture onto a pre-wetted Whatman GF/B filter on a Sandbeck Vacuum Filtration Manifold. The incubation tubes were washed with 2×3 mL of ice-cold HEPES Buffer #2 and the wash filtered through the GF/B filter. The filter was air dried for 10 min and then placed in a scintillation vial with 12 mL of DuPont/NEN Aquasol scintillation cocktail. The vials were shaken overnight and then counted using a liquid scintillation spectrometer. Non-specific binding was determined in the presence of 1 micromolar native CCK-8 and subtracted from all samples to determine specific binding. The concentration of peptide necessary to inhibit 50% of total specific H-CCK-8-(SO3 H) binding (IC50 value) was determined by log-probit analysis.

In assay [2] the test system is Male Sprague-Dawley (CD) rats. The assay can be described thus: Two-Meal Feeding Assay. The conditions noted are these: rat. The format is in vivo. The method, then: Male Sprague-Dawley (CD) rats weighing 180-200 grams (Charres River Breeding Laboratories) were acclimated to a 12 h light/dark cycle (6 a.m. to 6 p.m.) in a room kept at 22° C. They were subsequently fasted for two days, weighed, placed in individual cages, and a four-day period of meal training was begun. During this time the rats were given ground laboratory chow (Purina Lab Chow) in jars for one hour from 9:00 a.m. until 10:00 a.m., the jars were removed from 10:00 a.m. to 12:00 p.m., and placed back in the cages from 12:00 until 1:00 p.m. Under this `1-2-1` meal feeding regime, most rats learn to eat approximately as much per day during the two hours they have access to food as rats which have food ad libitum over the entire 24-hour day. On the fourth day, the rats were weighed again, and any which lost more than five grams body weight were excluded from the test. The animals were then distributed into experimental (n=5 to 6) and control groups (n=6-12), but not matched for body weight.
Peptides of the invention were suspended either in saline, if soluble, or in 0.5% DMSO/saline, if insoluble, at concentrations of 0 to 320 μg/mL/kg body weight and were administered intraperitoneally 15 min before the first meal on day 5 of meal feeding. The rats were then given their meals as they had been during the previous four days, and the food cups were weighed both before and after each meal to determine food consumption. Food intake was expressed as a mean and standard error of the mean in percent of control values for the various groups. The treated groups were compared to the control groups by t-test analysis.

The target of assay [3] is T2, rat pancreas (3H-CCK-8-(SO3 H) receptor binding) (Rattus norvegicus, UniProt P30551).
T2 construct: pancreas approximately 0.100 mg protein in 1 mL final volume; from tissue; host or cells: rat pancreas membrane homogenate
T2 sequence (P30551 1-444): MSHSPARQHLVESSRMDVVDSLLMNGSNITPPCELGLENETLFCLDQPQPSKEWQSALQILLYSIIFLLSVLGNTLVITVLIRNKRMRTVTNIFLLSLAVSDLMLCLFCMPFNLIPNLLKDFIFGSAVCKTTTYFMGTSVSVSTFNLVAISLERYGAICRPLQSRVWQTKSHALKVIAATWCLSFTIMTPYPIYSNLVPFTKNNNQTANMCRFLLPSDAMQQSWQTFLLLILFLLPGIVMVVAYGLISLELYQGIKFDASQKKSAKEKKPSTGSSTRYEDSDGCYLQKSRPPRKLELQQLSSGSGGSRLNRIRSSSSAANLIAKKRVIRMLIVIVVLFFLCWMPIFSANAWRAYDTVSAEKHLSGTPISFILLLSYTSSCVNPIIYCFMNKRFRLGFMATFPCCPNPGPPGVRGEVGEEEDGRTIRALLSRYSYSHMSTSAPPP
The assay is described as follows: In vitro receptor binding assay, 3H-CCK-8-(SO3H), rat pancreas homogenate. The conditions noted are these: 3H-CCK-8-(SO3H) 0.15 nM, 30 min at 25° C., rat pancreas homogenate; read-out: Rate Pancreas IC50 (concentration to inhibit 50% of specific 3H-CCK-8-(SO3H) binding). On the procedure: as §1, §2

Setting [4] is: dose 32 Microgram/kg intraperitoneally 15 min before first meal.
Where [5] appears, read: dose 320 Microgram/kg intraperitoneally 15 min before first meal.
The mark [6] stands for this setting: dose 10 Microgram/kg intraperitoneally 15 min before first meal.
The mark [7] stands for this setting: dose 100 Microgram/kg intraperitoneally 15 min before first meal.

Consider `CSCC[C@@H]1NC(=O)[C@H](Cc2c[nH]c3ccccc23)NC(=O)CNC(=O)[C@@H](NC(=O)C(Cc2ccc(-c3nnn[nH]3)cc2)NC(C)=O)CCCCNC(=O)C[C@@H](C(=O)N(C)[C@@H](Cc2ccccc2)C(N)=O)NC1=O` (some centres unmarked) [Example 57] (Ac-[X9]KGWMD[NMeF]-NH2; lactam 2-6), for which the IC50 in assay [1] worked out at 580 nM; in assay [3], 1100 nM. Moreover, the “Food Intake 1st Meal” value is 75 ± 6 % of Control in assay [2] (setting [4]) and 36 ± 3 % of Control in assay [2] (setting [5]). The “Food Intake 2nd Meal” value in assay [2] (setting [4]) is listed as 160 ± 14 % of Control; in assay [2] (setting [5]) it was 148 ± 6 % of Control.

`CCCC[C@H](NC(=O)[C@H](Cc1c[nH]c2ccccc12)NC(=O)CNC(=O)[C@H](CCCC)NC(=O)[C@@H](Cc1ccc(Cc2nn[nH]n2)cc1)NC(C)=O)C(=O)N[C@@H](CC(=O)O)C(=O)N(C)[C@@H](Cc1ccccc1)C(N)=O` [Example 64, Ac-(D)-Phe(4-CH2 -tetrazole)-Nle-Gly-Trp-Nle-Asp-N-methyl-Phe-NH2] (Ac-[X4][Nle]GW[Nle]D[NMeF]-NH2): the “Food Intake 1st Meal” value was 112 ± 10 % of Control in assay [2] (setting [6]), 79 ± 5 % of Control in assay [2] (setting [4]), 56 % of Control in assay [2] (setting [7]) and 21 ± 6 % of Control in assay [2] (setting [5]). Further, the “Food Intake 2nd Meal” value is recorded as 102 ± 9 % of Control in assay [2] (setting [6]), 148 ± 12 % of Control in assay [2] (setting [4]), 173 ± 5 % of Control in assay [2] (setting [7]) and 207 % of Control in assay [2] (setting [5]).

For `CCCC[C@H](NC(=O)[C@H](Cc1ccc(Cc2nnn[nH]2)cc1)NC(C)=O)C(=O)NCC(=O)N[C@@H](Cc1c[nH]c2ccccc12)C(=O)N[C@@H](CCCC)C(=O)N[C@@H](CC(=O)O)C(=O)N(C)[C@@H](Cc1ccccc1)C(N)=O` [Example 65, Ac-Phe(4-CH2 -tetrazole) -Nle-Gly-Trp-Nle-Asp- N-methyl-Phe-NH2] (Ac-[X6][Nle]GW[Nle]D[NMeF]-NH2), the IC50 in assay [1] amounted to 69 nM; in assay [3] it was 260 nM.

On to `CCCC[C@H](NC(=O)CCc1ccc(Cc2nnn[nH]2)cc1)C(=O)NCC(=O)N[C@@H](Cc1c[nH]c2ccccc12)C(=O)N[C@@H](CCCC)C(=O)N[C@@H](CC(=O)O)C(=O)N(C)[C@@H](Cc1ccccc1)C(N)=O` [Example 66, Desamino-Phe(4-CH2 -tetrazole)-Nle-Gly-Trp-Nle-Asp-N-methyl-Phe-NH2] (X2-[Nle]GW[Nle]D[NMeF]-NH2), for which the IC50 in assay [1] was determined as 160 nM; in assay [3], 710 nM.

Turning to `CSCC[C@@H]1NC(=O)[C@H](Cc2c[nH]c3ccccc23)NC(=O)CNC(=O)[C@@H](NC(=O)CCc2ccc(-c3nn[nH]n3)cc2)CCCCNC(=O)C[C@@H](C(=O)N(C)[C@@H](Cc2ccccc2)C(N)=O)NC1=O` [Example 68] (X10-KGWMD[NMeF]-NH2; lactam 1-5), the IC50 in assay [1] was 1400 nM; in assay [3] it was 2900 nM.

For `CSCC[C@H](NC(=O)CCc1ccc(CC(=O)O)cc1)C(=O)NCC(=O)N[C@@H](Cc1c[nH]c2ccccc12)C(=O)N[C@@H](CCSC)C(=O)N[C@@H](CC(=O)O)C(=O)N(C)[C@@H](Cc1ccccc1)C(N)=O` [Example 69, Desamino-Phe(4-CH2 -COOH)-Met-Gly-Trp-Met-Asp-N-methyl-Phe-NH2] ({Propanoyl(3-(4-HOOCCH2-Ph))}-MGWMD[NMeF]-NH2), the figures for the IC50 in assay [1] and in assay [3] were 3.2 nM and 1.8 nM, respectively.

For the compound `CCCC[C@H](NC(=O)CCc1ccc(CC(=O)O)cc1)C(=O)NCC(=O)N[C@@H](Cc1c[nH]c2ccccc12)C(=O)N[C@@H](CCCC)C(=O)N[C@@H](CC(=O)O)C(=O)N(C)[C@@H](Cc1ccccc1)C(N)=O` [Example 70, Desamino-Phe(4-CH2 COOH)-Nle-Gly-Trp-Nle-Asp-N-methyl-Phe-NH2] ({Propanoyl(3-(4-HOOCCH2-Ph))}-[Nle]GW[Nle]D[NMeF]-NH2), the IC50 in assay [1] was 200 nM; in assay [3], 330 nM.

Consider `CCCC[C@H](NC(=O)CCc1ccc(CC(=O)O)cc1)C(=O)N[C@H](C)C(=O)N[C@@H](Cc1c[nH]c2ccccc12)C(=O)N[C@@H](CCCC)C(=O)N[C@@H](CC(=O)O)C(=O)N(C)[C@@H](Cc1ccccc1)C(N)=O` [Example 71, Desamino-Phe(4-CH2 COOH)-Nle-(D)Ala-Trp-Nle- Asp-N-methyl-Phe-NH2] ({Propanoyl(3-(4-HOOCCH2-Ph))}-[Nle][dA]W[Nle]D[NMeF]-NH2), for which the figures for the IC50 in assay [1] and in assay [3] were 1400 nM and 1800 nM, respectively.

The values are drawn from patent publication US5508437A, “Analogs of tyrosine sulfate or tyrosine phosphate containing peptides” (Hoffmann-La Roche Inc., priority 1993, dated 1996).
